Source: the supplement of paper PMC10307832

Each cell line was assayed with CC1(C)CNc2cc(NC(=O)c3cccnc3NCc3ccncc3)ccc21 [Motesanib] + CC(C)C[C@H](NC(=O)[C@H](Cc1ccccc1)NC(=O)c1cnccn1)B(O)O [Bortezomib] (partner 0.002 µM) (assay: relative viability (nuclei count vs DMSO), 5 days (fraction); higher = more cells survive). Details: first compound 1 µM.
How it was run: (§1)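 The day after seeding in 1536-well plates, lung cancer cell lines were treated by pin tool with a single drug, or with a fixed anchor-drug dose together with five library-drug doses (not always all listed) in √10 steps. After 5 days, a combined fix-and-stain solution (final 0.05% Triton X-100, 1% formaldehyde, 1 ug/ml Hoechst) was added. Nuclei counted on 4× images gave relative viability as treated counts over vehicle counts, reported as the median of duplicate plates.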
NCI-H1563 gave a relative viability of 0.904.
For ABC-1, the relative viability was 0.292.

The cell lines below were run with CC1(C)CNc2cc(NC(=O)c3cccnc3NCc3ccncc3)ccc21 [Motesanib] + Nc1ncn([C@H]2C[C@H](O)[C@@H](CO)O2)c(=O)n1 [Decitabine] (partner 2 µM) in the same assay as above. Details: first compound 0.01 µM.
How it was run: as §1
Cell Line NCI-H2342 has a relative viability of 0.765.
For NCI-H727, the relative viability was 0.861.
For NCI-H1650, the relative viability was 0.53.
In the case of NCI-H1993, the relative viability is reported as 0.598.
Cell Line SW 1573 has a relative viability of 0.532.
Cell Line NCI-H838 has a relative viability of 0.484.
LCLC-103H showed a relative viability of 0.774.
NCI-H520 showed a relative viability of 0.554.
In the case of NCI-H2126, the relative viability is reported as 0.608.
In the case of EMC-BAC-2, the relative viability is reported as 0.956.
Cell Line NCI-H2085 has a relative viability of 0.551.
HCC-366 gave a relative viability of 0.381.
NCI-H1666 showed a relative viability of 0.67.
Cell Line NCI-H596 has a relative viability of 1.1.
With LK-2 the relative viability was 0.251.
NCI-H1648 gave a relative viability of 0.498.
In the case of SK-MES-1, the relative viability is reported as 0.358.
In the case of H3255, the relative viability is reported as 0.561.
COR-L23 gave a relative viability of 0.477.
COR-L 105 showed a relative viability of 0.643.
With LOU-NH91 the relative viability was 0.829.
With ChaGo-K-1 the relative viability was 0.506.
Work on NCI-H2170 yielded a relative viability of 0.485.
With NCI-H2405 the relative viability was 0.77.
HOP-62 showed a relative viability of 0.179.
HCC-44 showed a relative viability of 0.972.
In the case of A549, the relative viability is reported as 0.261.
Work on NCI-H522 yielded a relative viability of 0.615.
SW 900 was tested, and the relative viability was 0.58.
For NCI-H1395, the relative viability was 0.765.
For NCI-H1793, the relative viability was 0.561.
In the case of NCI-H1944, the relative viability is reported as 0.477.
ABC-1 was tested, and the relative viability was 0.825.
For NCI-H358, the relative viability was 0.197.

Same assay, conditions: first compound 0.03162 µM
For NCI-H2342, the relative viability was 0.608.
NCI-H727 was tested, and the relative viability was 0.927.
Cell Line NCI-H1650 has a relative viability of 0.352.
For NCI-H1993, the relative viability was 0.568.
SW 1573 was tested, and the relative viability was 0.511.
NCI-H838 gave a relative viability of 0.49.
LCLC-103H gave a relative viability of 0.729.
NCI-H520 gave a relative viability of 0.538.
In the case of NCI-H2126, the relative viability is reported as 0.645.
EMC-BAC-2 was tested, and the relative viability was 0.979.
With NCI-H2085 the relative viability was 0.684.
For HCC-366, the relative viability was 0.439.
For NCI-H1666, the relative viability was 0.748.
Work on NCI-H596 yielded a relative viability of 1.08.
In the case of LK-2, the relative viability is reported as 0.398.
SK-MES-1 showed a relative viability of 0.383.
H3255 was tested, and the relative viability was 0.651.
Work on COR-L23 yielded a relative viability of 0.456.
COR-L 105 was tested, and the relative viability was 0.683.
Cell Line LOU-NH91 has a relative viability of 0.815.
Cell Line ChaGo-K-1 has a relative viability of 0.556.
In the case of NCI-H2170, the relative viability is reported as 0.509.
NCI-H2405 showed a relative viability of 0.773.
HOP-62 was tested, and the relative viability was 0.233.
For HCC-44, the relative viability was 0.952.
A549 was tested, and the relative viability was 0.216.
NCI-H522 gave a relative viability of 0.675.
SW 900 showed a relative viability of 0.475.
NCI-H1395 showed a relative viability of 0.698.
NCI-H1793 showed a relative viability of 0.539.
Work on NCI-H1944 yielded a relative viability of 0.444.
ABC-1 showed a relative viability of 1.03.
For NCI-H358, the relative viability was 0.261.

Same assay, conditions: first compound 0.1 µM
Work on NCI-H2342 yielded a relative viability of 0.759.
NCI-H727 gave a relative viability of 0.929.
Work on NCI-H1650 yielded a relative viability of 0.445.
NCI-H1993 was tested, and the relative viability was 0.609.
SW 1573 was tested, and the relative viability was 0.458.
With NCI-H838 the relative viability was 0.541.
Work on LCLC-103H yielded a relative viability of 0.833.
NCI-H520 showed a relative viability of 0.626.
Cell Line NCI-H2126 has a relative viability of 0.625.
In the case of EMC-BAC-2, the relative viability is reported as 1.01.
NCI-H2085 was tested, and the relative viability was 0.702.
HCC-366 gave a relative viability of 0.416.
In the case of NCI-H1666, the relative viability is reported as 0.885.
Cell Line NCI-H596 has a relative viability of 1.12.
Work on LK-2 yielded a relative viability of 0.28.
In the case of NCI-H2087, the relative viability is reported as 0.343.
In the case of SK-MES-1, the relative viability is reported as 0.59.
H3255 showed a relative viability of 0.605.
In the case of COR-L23, the relative viability is reported as 0.491.
In the case of COR-L 105, the relative viability is reported as 0.72.
Cell Line LOU-NH91 has a relative viability of 0.848.
ChaGo-K-1 showed a relative viability of 0.544.
In the case of NCI-H2170, the relative viability is reported as 0.575.
With NCI-H2405 the relative viability was 0.719.
HOP-62 showed a relative viability of 0.573.
Cell Line HCC-44 has a relative viability of 0.932.
Cell Line A549 has a relative viability of 0.327.
Cell Line NCI-H522 has a relative viability of 0.639.
With SW 900 the relative viability was 0.632.
For NCI-H1395, the relative viability was 0.795.
NCI-H1793 was tested, and the relative viability was 0.663.
NCI-H1944 gave a relative viability of 0.495.
For ABC-1, the relative viability was 1.02.
NCI-H358 showed a relative viability of 0.257.

Same assay, conditions: first compound 0.3162 µM
Cell Line NCI-H2342 has a relative viability of 0.765.
NCI-H727 showed a relative viability of 0.804.
Cell Line NCI-H1650 has a relative viability of 0.546.
With NCI-H1993 the relative viability was 0.657.
SW 1573 showed a relative viability of 0.586.
NCI-H838 gave a relative viability of 0.572.
With LCLC-103H the relative viability was 0.815.
NCI-H520 gave a relative viability of 0.613.
In the case of NCI-H2126, the relative viability is reported as 0.698.
EMC-BAC-2 gave a relative viability of 0.984.
NCI-H2085 was tested, and the relative viability was 0.644.
HCC-366 showed a relative viability of 0.397.
Cell Line NCI-H1666 has a relative viability of 0.762.
In the case of NCI-H596, the relative viability is reported as 1.15.
LK-2 was tested, and the relative viability was 0.285.
For NCI-H2087, the relative viability was 0.259.
NCI-H1648 was tested, and the relative viability was 0.531.
Work on SK-MES-1 yielded a relative viability of 0.561.
H3255 gave a relative viability of 0.623.
For COR-L23, the relative viability was 0.468.
COR-L 105 gave a relative viability of 0.739.
For LOU-NH91, the relative viability was 0.838.
In the case of ChaGo-K-1, the relative viability is reported as 0.661.
NCI-H2170 gave a relative viability of 0.576.
NCI-H2405 showed a relative viability of 0.833.
In the case of HOP-62, the relative viability is reported as 0.608.
For HCC-44, the relative viability was 1.07.
Cell Line A549 has a relative viability of 0.278.
In the case of NCI-H522, the relative viability is reported as 0.725.
SW 900 was tested, and the relative viability was 0.677.
NCI-H1395 showed a relative viability of 0.739.
For NCI-H1793, the relative viability was 0.755.
Work on NCI-H1944 yielded a relative viability of 0.534.
In the case of ABC-1, the relative viability is reported as 0.931.
NCI-H358 gave a relative viability of 0.314.

Same assay, conditions: first compound 1 µM
Work on NCI-H2342 yielded a relative viability of 0.9.
Work on NCI-H727 yielded a relative viability of 0.937.
NCI-H1650 was tested, and the relative viability was 0.564.
Work on NCI-H1993 yielded a relative viability of 0.659.
SW 1573 was tested, and the relative viability was 0.553.
NCI-H838 gave a relative viability of 0.582.
LCLC-103H gave a relative viability of 0.759.
With NCI-H520 the relative viability was 0.669.
Work on NCI-H2126 yielded a relative viability of 0.709.
Work on EMC-BAC-2 yielded a relative viability of 1.04.
With NCI-H2085 the relative viability was 0.71.
For HCC-366, the relative viability was 0.635.
NCI-H1666 was tested, and the relative viability was 0.813.
In the case of NCI-H596, the relative viability is reported as 1.16.
In the case of LK-2, the relative viability is reported as 0.374.
NCI-H2087 was tested, and the relative viability was 0.367.
NCI-H1648 gave a relative viability of 0.42.
Work on SK-MES-1 yielded a relative viability of 0.695.
In the case of H3255, the relative viability is reported as 0.678.
For COR-L23, the relative viability was 0.519.
COR-L 105 was tested, and the relative viability was 0.705.
